According to patent US8304539B2, “Fused heteroaryl modulators of glucocorticoid receptor, AP-1, and/or NF-κB activity and use thereof” (Bristol-Myers Squibb Company, priority 2008, dated 2012):
Read-outs that look alike come from different tables or passages of the source.

Tested on: AP-1
Test: Cellular transrepression assay (AP-1 luciferase reporter in A549 cells, PMA activated)
Format: cell-based
Settings: 10 ng/ml PMA; for EC50: read-out: AP-1 (EC50, nM) (measured in cellular transrepression assay); for Emax: read-out: AP-1 Max % inhibition (measured in cellular transrepression assay)
Procedure: Cellular Transrepressional Assay
To measure the ability of test molecules to inhibit AP-1 induced transcriptional activity we utilized an A549 cell which was stably transfected with a plasmid containing 7×AP-1 DNA binding sites (pAP-1-Luc plasmid, Stratagene Co. La Jolla, Calif.) followed by the gene for luciferase. Cells were activated with 10 ng/ml of phorbol myristic acid (PMA) plus or minus test molecules for 7 hours. After 7 hours a luciferase reagent was added to measure luciferase enzymatic activity in the cell. After a 10 minute incubation of luciferase reagent with cells, luminescence was measured in a TopCount luminescence counter. Repression of AP-1 activity was calculated as the percentage decrease in the signal induced by PMA alone. Test molecules were analyzed in the concentration range from 0.1 nM to 40 μM. EC50s were determined by using standard curve fitting methods such as Excel fit (Microsoft Co.). An EC50 is the test molecule concentration at which there is a 50% repression of the maximal inhibition of transcription, i.e. a 50% reduction of AP-1 activity.

`CCN(C)C(=O)c1ccc(-c2ccc3c(n2)Oc2nc(C)ccc2C3C(C)(C)C(=O)Nc2nncs2)cc1F` (stereo not drawn) [Example 18] gave an EC50 (7 h) of 52 nM and an Emax (7 h) of 47.8%.

`Cc1ccc2c(n1)Oc1nc(N(C)C)ccc1C2C(C)(C)C(=O)Nc1nncs1` (stereo not drawn) [Example 20, 2-(2-(dimethylamino)-8-methyl-5H-pyrido[3′,2′:5,6]pyrano[2,3-b]pyridin-5-yl)-2-methyl-N-1,3,4-thiadiazol-2-ylpropanamide] was tested, and the EC50 (7 h) was 198 nM and the Emax (7 h) was 27.9%.

`CCN(C)C(=O)c1ccc(-c2ccc3c(n2)Oc2nc(C)ccc2[C@@H]3C(C)(C)C(=O)Nc2nncs2)cc1F` [Example 21] was tested, and the EC50 (7 h) was 166 nM and the Emax (7 h) was 49.7%.

`CCN(C)C(=O)c1ccc(-c2ccc3c(n2)Oc2nc(C)ccc2[C@@H]3C(C)(C)C(=O)Nc2nncs2)cc1` [Example 22] was tested, and the EC50 (7 h) was 81.9 nM and the Emax (7 h) was 59.3%.

`Cc1ccc2c(n1)Oc1nc(-c3ccc(SC(C)C)cc3)ccc1[C@H]2C(C)(C)C(=O)Nc1nncs1` [Example 27] gave an EC50 (7 h) of 41.9 nM and an Emax (7 h) of 32.4%.

Compound `Cc1ccc2c(n1)Oc1nc(-c3ccc(OC(C)C)cc3)ccc1[C@H]2C(C)(C)C(=O)Nc1nncs1` [Example 30] has an EC50 (7 h) of 41.6 nM and an Emax (7 h) of 34.6%.

`Cc1ccc2c(n1)Oc1nc(-c3ccc(C(=O)N4CCCC4)cc3)ccc1[C@H]2C(C)(C)C(=O)Nc1nncs1` [Example 31] was tested, and the EC50 (7 h) was 376 nM and the Emax (7 h) was 49.3%.

For `CCOC(=O)c1nnc(NC(=O)C(C)(C)[C@H]2c3ccc(C)nc3Oc3nc(-c4ccc(C(=O)N(C)CC)cc4)ccc32)s1` [Example 32], the EC50 (7 h) was 176 nM and the Emax (7 h) was 74.3%.

`CCN(C)C(=O)c1ccc(-c2ccc3c(n2)Oc2nc(C)ccc2[C@@H]3C(C)(C)C(=O)Nc2ncc(C)s2)cc1` [Example 33] was tested, and the EC50 (7 h) was 449 nM and the Emax (7 h) was 50.8%.

With `CCN(C)C(=O)c1ccc(-c2ccc3c(n2)Oc2nc(C)ccc2[C@@H]3C(C)(C)C(=O)Nc2nccs2)cc1` [Example 34] the EC50 (7 h) was 14.6 nM and the Emax (7 h) was 64.9%.

Work on `CCN(C)C(=O)c1ccc(-c2ccc3c(n2)Oc2nc(C)ccc2[C@@H]3C(C)(C)C(=O)Nc2nnc(C)s2)cc1` [Example 35] yielded an EC50 (7 h) of 175 nM and an Emax (7 h) of 45%.

`Cc1ccc2c(n1)Oc1nc(-c3ccc([S+](C)[O-])cc3)ccc1C2C(C)(C)C(=O)Nc1nncs1` [Example 36, (4-((5S)-5-(1,1-dimethyl-2-oxo-2-(1,3,4-thiadiazol-2-ylamino)ethyl)-8-methyl-5H-pyrido[3′,2′:5,6]pyrano[2,3-b]pyridin-2-yl)phenyl)(methyl)sulfoniumolate] was tested, and the EC50 (7 h) was 526 nM and the Emax (7 h) was 26.9%.

With `Cc1ccc2c(n1)Oc1nc(-c3ccc(C(=O)N4CCC4)cc3)ccc1[C@H]2C(C)(C)C(=O)Nc1nncs1` [Example 38] the EC50 (7 h) was 470 nM and the Emax (7 h) was 41.9%.

`Cc1ccc2c(n1)Oc1nc(-c3ccc(C(=O)N4CCC(F)(F)C4)cc3)ccc1[C@H]2C(C)(C)C(=O)Nc1nncs1` [Example 40] gave an EC50 (7 h) of 539 nM and an Emax (7 h) of 43.3%.

Compound `Cc1ccc2c(n1)Oc1nc(-c3ccc(C(=O)N(C)C4CC4)cc3)ccc1[C@H]2C(C)(C)C(=O)Nc1nncs1` [Example 41] has an EC50 (7 h) of 359 nM and an Emax (7 h) of 39.2%.

Compound `Cc1ccc2c(n1)Oc1nc(-c3ccc(C(=O)N4CCOCC4)c(F)c3)ccc1[C@H]2C(C)(C)C(=O)Nc1nncs1` [Example 42] has an EC50 (7 h) of 228 nM and an Emax (7 h) of 43.6%.

`CCN(C)C(=O)c1ccc(-c2ccc3c(n2)Oc2nc(C)ccc2[C@@H]3C(C)(C)C(=O)Nc2nnc(C(=O)NC3CC3)s2)cc1` [Example 44] showed an EC50 (7 h) of 589 nM and an Emax (7 h) of 60.8%.

For `CCN(C)C(=O)c1ccc(-c2ccc3c(n2)Oc2nc(C)ccc2[C@@H]3C(C)(C)C(=O)Nc2nnc(C(=O)NC)s2)cc1` [Example 46], the EC50 (7 h) was 759 nM and the Emax (7 h) was 36%.

In the case of `CCNC(=O)c1nnc(NC(=O)C(C)(C)[C@H]2c3ccc(C)nc3Oc3nc(-c4ccc(C(=O)N(C)CC)cc4)ccc32)s1` [Example 48], the EC50 (7 h) is reported as 341 nM and the Emax (7 h) is reported as 59.4%.

`CCN(C)C(=O)c1ccc(-c2ccc3c(n2)Oc2nc(C)ccc2[C@@H]3C(C)(C)C(=O)Nc2nnc(C(=O)NC3CCC3)s2)cc1` [Example 49] gave an EC50 (7 h) of 98 nM and an Emax (7 h) of 66.3%.

With `CCN(C)C(=O)c1ccc(-c2ccc3c(n2)Oc2nc(C)ccc2[C@@H]3C(C)(C)C(=O)Nc2nnc(C(=O)N3CCOCC3)s2)cc1` [Example 50] the EC50 (7 h) was 908 nM and the Emax (7 h) was 35.4%.

With `CN(C)C(=O)c1ccc(-c2ccc3c(n2)Oc2nc(Cl)ccc2C3C(C)(C)C(=O)Nc2nncs2)cc1` (stereo not drawn) [Example 54, 4-(8-chloro-5-(1,1-dimethyl-2-oxo-2-(1,3,4-thiadiazol-2-ylamino)ethyl)-5H-pyrido[3′,2′:5,6]pyrano[2,3-b]pyridin-2-yl)-N,N-dimethylbenzamide] the EC50 (7 h) was 33.8 nM and the Emax (7 h) was 59.2%.

In the case of `CC(C)Sc1ccc2c(n1)Oc1nc(-c3ccc(C(=O)N(C)C)cc3)ccc1C2C(C)(C)C(=O)Nc1nncs1` (stereo not drawn) [Example 55], the EC50 (7 h) is reported as 354 nM and the Emax (7 h) is reported as 30.5%.

Work on `Cc1nnc(NC(=O)C(C)(C)C2c3ccc(Cl)nc3Oc3nc(-c4ccc(C(=O)N(C)C)cc4)ccc32)s1` (stereo not drawn) [Example 56] yielded an EC50 (7 h) of 70.6 nM and an Emax (7 h) of 45.9%.

`Cc1nsc(NC(=O)C(C)(C)C2c3ccc(Cl)nc3Oc3nc(-c4ccc(C(=O)N(C)C)cc4)ccc32)n1` (stereo not drawn) [Example 57] was tested, and the EC50 (7 h) was 68.5 nM and the Emax (7 h) was 31.4%.

Work on `CCN(C)C(=O)c1ccc(-c2ccc3c(n2)Oc2nc(Cl)ccc2C3C(C)(C)C(=O)Nc2nnc(C)s2)cc1` (stereo not drawn) [Example 58, 4-(8-chloro-5-(1,1-dimethyl-2-((5-methyl-1,3,4-thiadiazol-2-yl)amino)-2-oxoethyl)-5H-pyrido[3′,2′:5,6]pyrano[2,3-b]pyridin-2-yl)-N-ethyl-N-methylbenzamide] yielded an EC50 (7 h) of 58.1 nM and an Emax (7 h) of 57.7%.

`CCN(C)C(=O)c1ccc(-c2ccc3c(n2)Oc2nc(Cl)ccc2C3C(C)(C)C(=O)Nc2nncs2)cc1` (stereo not drawn) [Example 59] showed an EC50 (7 h) of 15.8 nM and an Emax (7 h) of 62.3%.

With `CC(C)(C(=O)Nc1nncs1)C1c2ccc(Cl)nc2Oc2nc(-c3ccc(C(=O)N4CCOCC4)cc3)ccc21` (stereo not drawn) [Example 60] the EC50 (7 h) was 10.7 nM and the Emax (7 h) was 57.5%.

For `Cc1nnc(NC(=O)C(C)(C)C2c3ccc(Cl)nc3Oc3nc(-c4ccc(C(=O)N5CCOCC5)cc4)ccc32)s1` (stereo not drawn) [Example 61], the EC50 (7 h) was 47.5 nM and the Emax (7 h) was 49.8%.

Compound `CN(C)C(=O)c1ccc(-c2ccc3c(n2)Oc2nc(Cl)ccc2C3C(C)(C)C(=O)Nc2nnc(C(=O)NC3CC3)s2)cc1` (stereo not drawn) [Example 62] has an EC50 (7 h) of 352 nM and an Emax (7 h) of 59.5%.

In the case of `Cc1nnc(NC(=O)C(C)(C)C2c3ccc(Cl)nc3Oc3nc(-c4ccc(C(=O)N5CCOCC5)cc4)ccc32)s1` (stereo not drawn) [Example 63], the “AP-1 Max % inhibition (measured in cellular transrepression assay)” value (7 hours) is reported as 54.57% and the EC50 (7 hours) is reported as 87 nM.

With `CN(C)C(=O)c1ccc(-c2ccc3c(n2)Oc2nc(C#N)ccc2C3C(C)(C)C(=O)Nc2nncs2)cc1` (stereo not drawn) [Example 66, 4-(8-cyano-5-(1,1-dimethyl-2-oxo-2-(1,3,4-thiadiazol-2-ylamino)ethyl)-5H-pyrido[3′,2′:5,6]pyrano[2,3-b]pyridin-2-yl)-N,N-dimethylbenzamide] the EC50 (7 h) was 335 nM and the Emax (7 h) was 38.9%.

With `CN(C)C(=O)c1ccc(-c2ccc3c(n2)Oc2nc(N(C)C)ccc2C3C(C)(C)C(=O)Nc2nncs2)cc1` (stereo not drawn) [Example 67, 4-(8-(dimethylamino)-5-(1,1-dimethyl-2-oxo-2-(1,3,4-thiadiazol-2-ylamino)ethyl)-5H-pyrido[3′,2′:5,6]pyrano[2,3-b]pyridin-2-yl)-N,N-dimethylbenzamide] the EC50 (7 h) was 53 nM and the Emax (7 h) was 57.9%.
